Patent publication US11702422B2, “Imidazopyridazines as modulators of IL-17” (Janssen Pharmaceutica NV, priority 2020, dated 2023)

How the values were obtained:
[1] = molecular target: IL-17A(FLAG-Tagged): IL-17RA(His-Tagged) (Homo sapiens, UniProt Q16552, K93Q); test: IL-17A(FLAG-Tagged): IL-17RA(His-Tagged) Binding Disruption Eu-HTRF Assay; details: IL-17A/IL-17RA binding disruption, simple average if tested more than once
Procedure, shortened: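 IC50 comes from a one-site competition fit of the HTRF 665/620 nm ratio. Compound dilutions (2-fold, 22 points) were held 1 h rt with FLAG-tagged IL-17A dimer, then His-tagged IL-17RA plus Eu-cryptate anti-FLAG and D2 anti-His antibodies were added for 2 h rt.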

[2] = system: IL-17A-induced G-CSF production in human normal keratinocyte (NHK); test: NHK Assay: IL-17A-induced G-CSF production in human normal keratinocytes; assay type: cell-based; details: 24 h, adult normal human keratinocytes, IL-17A 5 ng/mL, simple average if tested more than once
Procedure, shortened: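 Adult normal human keratinocytes were seeded at 3000-4000 cells/well. Recombinant human IL-17A was pre-incubated 1 h at rt with titrated compound, then added to cells (final 5 ng/mL IL-17A, 0.2% DMSO, 5% FBS) for 24 h at 37° C. Supernatant G-CSF was measured by HTRF against a standard curve to give IC50.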

Chain of UniProt Q16552 (Q16552 with tags, fused parts or gaps K93Q): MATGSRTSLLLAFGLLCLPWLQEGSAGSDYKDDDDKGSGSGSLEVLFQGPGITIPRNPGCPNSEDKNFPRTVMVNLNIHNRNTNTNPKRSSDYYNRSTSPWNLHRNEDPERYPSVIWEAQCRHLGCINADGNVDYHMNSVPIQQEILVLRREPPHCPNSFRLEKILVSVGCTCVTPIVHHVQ

Structure (SMILES)	IC50 [1]	IC50 ([2]; Homo sapiens, Keratinocyte)	IC50 [2]
O=C(CCC(F)(F)F)N[C@@H](c1cnn2cc([C@@H](NC(=O)c3cncc(C(F)(F)F)n3)C3CCC(F)(F)CC3)nc2c1)C1CC1 [Example 210, N—((S)-(7-((R)-Cyclopropyl(4,4,4-trifluorobutanamido)methyl)imidazo[1,2-b]pyridazin-2-yl)(4,4-difluorocyclohexyl)methyl)-6-(trifluoromethyl)pyrazine-2-carboxamide]	620 nM	> 20000 nM	
CC(C)n1nnc(C(=O)N[C@H](c2cn3ncc([C@H](NC(=O)CCC(F)(F)F)C4CC4)cc3n2)C2CCC(F)(F)CC2)n1 [Example 484, N—[(S)-[7-[(R)-Cyclopropyl-(4,4,4-trifluorobutanamido)methyl]imidazo[1,2-b]pyridazin-2-yl]-(4,4-difluorocyclohexyl)methyl]-2-isopropyl-tetrazole-5-carboxamide]	550 nM	4600 nM	
O=C(CC1CC(F)(F)C1)NC(c1cnn2cc([C@@H](NC(=O)c3cnn(CCC(F)(F)F)c3)C3CCC(F)(F)CC3)nc2c1)C1CC1 (single isomer, unassigned) [Example 9, N—((S)-(7-((S*)-Cyclopropyl(2-(3,3-difluorocyclobutyl)acetamido)methyl)imidazo[1,2-b]pyridazin-2-yl)(4,4-difluorocyclohexyl)methyl)-1-(3,3,3-trifluoropropyl)-1H-pyrazole-4-carboxamide]	8300 nM		> 20000 nM
Cc1nonc1C(=O)N[C@H](c1cn2ncc([C@H](NC(=O)CCC3CC3(F)F)C3CC3)cc2n1)C1CCC(F)(F)CC1 (stereo partly drawn) [Example 290, N-((1S)-(7-((1R)-Cyclopropyl(3-(2,2-difluorocyclopropyl)propanamido)methyl)imidazo[1,2-b]pyridazin-2-yl)(4,4-difluorocyclohexyl)methyl)-4-methyl-1,2,5-oxadiazole-3-carboxamide]	83 nM	220 nM	
CN(C)c1nonc1C(=O)N[C@H](c1cn2ncc([C@H](NC(=O)CC3CC(F)(F)C3)C3CC3)cc2n1)C1CCC(F)(F)CC1 [Example 406, N—((S)-(7-((R)-Cyclopropyl(2-(3,3-difluorocyclobutyl)acetamido)methyl)imidazo[1,2-b]pyridazin-2-yl)(4,4-difluorocyclohexyl)methyl)-4-(dimethylamino)-1,2,5-oxadiazole-3-carboxamide]	77 nM	290 nM	
COc1cccc(C(=O)N[C@H](c2cn3ncc([C@H](NC(=O)CCC(F)(F)F)C4CC4)cc3n2)C2CCC(F)(F)CC2)n1 [Example 226, N—((S)-(7-((R)-Cyclopropyl(4,4,4-trifluorobutanamido)methyl)imidazo[1,2-b]pyridazin-2-yl)(4,4-difluorocyclohexyl)methyl)-6-methoxypicolinamide]	2500 nM	> 20000 nM	
O=C(CCC(F)(F)F)N[C@@H](c1cnn2cc([C@@H](NC(=O)c3cc(C(F)F)ncn3)C3CCC(F)(F)CC3)nc2c1)C1CC1 [Example 199, N—((S)-(7-((R)-Cyclopropyl(4,4,4-trifluorobutanamido)methyl)imidazo[1,2-b]pyridazin-2-yl)(4,4-difluorocyclohexyl)methyl)-6-(difluoromethyl)pyrimidine-4-carboxamide]	230 nM	2000 nM	
N#CC12CC(Cn3nncc3C(=O)N[C@H](c3cn4ncc([C@H](NC(=O)CCC(F)(F)F)C5CC5)cc4n3)C3CCC(F)(F)CC3)(C1)C2 [Example 145, 1-((3-Cyanobicyclo[1.1.1]pentan-1-yl)methyl)-N—((S)-(7-((R)-cyclopropyl(4,4,4-trifluorobutanamido)methyl)imidazo[1,2-b]pyridazin-2-yl)(4,4-difluorocyclohexyl)methyl)-1H-1,2,3-triazole-5-carboxamide]	650 nM	300 nM	
Cc1ccncc1C(=O)N[C@H](c1cn2ncc([C@H](NC(=O)CCC(F)(F)F)C3CC3)cc2n1)C1CCC(F)(F)CC1 [Example 209, N—((S)-(7-((R)-Cyclopropyl(4,4,4-trifluorobutanamido)methyl)imidazo[1,2-b]pyridazin-2-yl)(4,4-difluorocyclohexyl)methyl)-4-methylnicotinamide]	1400 nM	> 20000 nM	
Cc1nonc1C(=O)N[C@H](c1cn2ncc([C@H](NC(=O)C[C@H]3C[C@@H](F)C3)C3CC3)cc2n1)C1CCC(F)(F)CC1 (single isomer, unassigned) [Example 267]	87 nM	350 nM	
Cn1nccc1C(=O)N[C@H](c1cn2ncc(C(NC(=O)CCC(F)(F)F)C3CC3)cc2n1)C1CCC(F)(F)CC1 (single isomer, unassigned) [Example 23, N—((S)-(7-((R*)-Cyclopropyl(4,4,4-trifluorobutanamido)methyl)imidazo[1,2-b]pyridazin-2-yl)(4,4-difluorocyclohexyl)methyl)-1-methyl-1H-pyrazole-5-carboxamide]	54 nM	82 nM	
CC(C)n1nccc1C(=O)N[C@H](c1cn2ncc([C@H](NC(=O)CC3(C(F)(F)F)CC3)C3CC3)cc2n1)C1CCC(F)(F)CC1 [Example 244, N—((S)-(7-((R)-Cyclopropyl(2-(1-(trifluoromethyl)cyclopropyl)acetamido)methyl)imidazo[1,2-b]pyridazin-2-yl)(4,4-difluorocyclohexyl)methyl)-1-isopropyl-1H-pyrazole-5-carboxamide]	140 nM	120 nM	
CC(C)Oc1conc1C(=O)N[C@H](c1cn2ncc([C@H](NC(=O)CCC(F)(F)F)C3CC3)cc2n1)C1CCC(F)(F)CC1 [Example 374, N—((S)-(7-((R)-Cyclopropyl(4,4,4-trifluorobutanamido)methyl)imidazo[1,2-b]pyridazin-2-yl)(4,4-difluorocyclohexyl)methyl)-4-isopropoxyisoxazole-3-carboxamide]	46 nM	240 nM	
O=C(CCC(F)(F)F)N[C@@H](c1cnn2cc([C@@H](NC(=O)c3cn(CC4CC(F)(F)C4(F)F)nn3)C3CCC(F)(F)CC3)nc2c1)C1CC1 (stereo partly drawn) [Example 96, N—((S)-(7-((R)-Cyclopropyl(4,4,4-trifluorobutanamido)methyl)imidazo[1,2-b]pyridazin-2-yl)(4,4-difluorocyclohexyl)methyl)-1-((2,2,3,3-tetrafluorocyclobutyl)methyl)-1H-1,2,3-triazole-4-carboxamide]	370 nM	2200 nM	
[2H]C([2H])([2H])n1nccc1C(=O)N[C@H](c1cn2ncc(C(NC(=O)CC3CC(F)(F)C3)C3CCC3)cc2n1)C1CCC(F)(F)CC1 (single isomer, unassigned) [Example 497, N—((S)-(7-((R*)-Cyclobutyl(2-(3,3-difluorocyclobutyl)acetamido)methyl)imidazo[1,2-b]pyridazin-2-yl)(4,4-difluorocyclohexyl)methyl)-1-(methyl-d3)-1H-pyrazole-5-carboxamide]	91 nM	150 nM	
O=C(CC1CC(F)(F)C1)NC(c1cnn2cc([C@@H](NC(=O)c3ccn(CCC(F)(F)F)n3)C3CCC(F)(F)CC3)nc2c1)C1CC1 (single isomer, unassigned) [Example 20, N—((S)-(7-((R*)-Cyclopropyl(2-(3,3-difluorocyclobutyl)acetamido)methyl)imidazo[1,2-b]pyridazin-2-yl)(4,4-difluorocyclohexyl)methyl)-1-(3,3,3-trifluoropropyl)-1H-pyrazole-3-carboxamide]	160 nM	650 nM	
COc1cc(C(=O)N[C@H](c2cn3ncc([C@H](NC(=O)CCC(F)(F)F)C4CC4)cc3n2)C2CCC(F)(F)CC2)ncn1 [Example 465, N—((S)-(7-((R)-Cyclopropyl(4,4,4-trifluorobutanamido)methyl)imidazo[1,2-b]pyridazin-2-yl)(4,4-difluorocyclohexyl)methyl)-6-methoxypyrimidine-4-carboxamide]	920 nM	1600 nM	
CC(C)c1ccsc1C(=O)N[C@H](c1cn2ncc([C@H](NC(=O)CCC(F)(F)F)C3CC3)cc2n1)C1CCC(F)(F)CC1 [Example 463, N—((S)-(7-((R)-Cyclopropyl(4,4,4-trifluorobutanamido)methyl)imidazo[1,2-b]pyridazin-2-yl)(4,4-difluorocyclohexyl)methyl)-3-isopropylthiophene-2-carboxamide]	94 nM	380 nM	
O=C(CCC(F)(F)F)N[C@@H](c1cnn2cc([C@@H](NC(=O)c3nnn(CC(F)F)c3C(F)(F)F)C3CCC(F)(F)CC3)nc2c1)C1CC1 [Example 109, N—((S)-(7-((R)-Cyclopropyl(4,4,4-trifluorobutanamido)methyl)imidazo[1,2-b]pyridazin-2-yl)(4,4-difluorocyclohexyl)methyl)-1-(2,2-difluoroethyl)-5-(trifluoromethyl)-1H-1,2,3-triazole-4-carboxamide]	440 nM	20000 nM	
O=C(CC1CC(F)(F)C1)N[C@@H](c1cnn2cc([C@@H](NC(=O)c3conc3OCC(F)F)C3CCC(F)(F)CC3)nc2c1)C1CC1 [Example 293, N—((S)-(7-((R)-Cyclopropyl(2-(3,3-difluorocyclobutyl)acetamido)methyl)imidazo[1,2-b]pyridazin-2-yl)(4,4-difluorocyclohexyl)methyl)-3-(2,2-difluoroethoxy)isoxazole-4-carboxamide]	160 nM	540 nM	
